Here are results for 2 compounds from US11707449B2, “Methods and formulations for treatment of spinobulbar muscular atrophy” (ST. JUDE CHILDREN'S RESEARCH HOSPITAL, INC., priority 2017, dated 2023).

The target in experiment [1] is T1, AR BF3 binding pocket and Bag-1L (Homo sapiens, UniProt P10275).
T1 sequence (P10275 1-920): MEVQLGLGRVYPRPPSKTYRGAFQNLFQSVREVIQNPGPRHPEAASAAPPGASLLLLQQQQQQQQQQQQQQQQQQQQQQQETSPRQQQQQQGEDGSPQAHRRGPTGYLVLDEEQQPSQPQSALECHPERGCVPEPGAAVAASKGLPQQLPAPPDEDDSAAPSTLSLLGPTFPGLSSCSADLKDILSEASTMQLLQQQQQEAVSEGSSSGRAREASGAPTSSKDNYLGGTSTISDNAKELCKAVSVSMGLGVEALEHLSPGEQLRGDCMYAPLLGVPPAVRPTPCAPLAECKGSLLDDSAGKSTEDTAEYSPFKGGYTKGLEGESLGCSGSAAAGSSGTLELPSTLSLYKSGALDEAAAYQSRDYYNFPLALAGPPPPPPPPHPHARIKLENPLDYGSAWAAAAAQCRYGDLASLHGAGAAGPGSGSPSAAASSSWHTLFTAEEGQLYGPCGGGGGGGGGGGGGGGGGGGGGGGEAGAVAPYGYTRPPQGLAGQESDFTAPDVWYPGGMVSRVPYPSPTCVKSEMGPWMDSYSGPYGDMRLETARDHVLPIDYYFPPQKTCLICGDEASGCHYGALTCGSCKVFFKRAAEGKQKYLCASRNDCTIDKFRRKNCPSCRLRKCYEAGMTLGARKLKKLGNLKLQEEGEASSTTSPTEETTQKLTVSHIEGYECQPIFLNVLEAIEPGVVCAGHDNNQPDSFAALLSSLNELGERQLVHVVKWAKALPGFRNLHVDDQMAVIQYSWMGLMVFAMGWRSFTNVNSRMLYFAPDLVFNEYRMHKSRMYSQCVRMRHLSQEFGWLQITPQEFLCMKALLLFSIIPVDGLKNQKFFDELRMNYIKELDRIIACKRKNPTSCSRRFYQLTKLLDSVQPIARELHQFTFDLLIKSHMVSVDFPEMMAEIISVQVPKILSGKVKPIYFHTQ
The settings on record: cited from earlier work.

The test system of experiment [2] is flies expressing human AR52Q in pan-neuronal tissues (ELAV>UAS-AR52Q). The experiment is described as follows: Viability of SBMA flies (rescue of DHT-induced lethality). The format is in vivo, Drosophila. The settings on record: flies reared on food containing 1 mM DHT and compound (TA, MEPB 0 to 400 μM). The source says:
UAS-AR52Q, UAS-AR52Q-K720A, and UAS-AR66Q-E897K fly stocks were generated as previously described^8. Fly stocks were crossed to various GAL4 driver lines (ELAV-GAL4 for pan-neuronal, OK371-GAL4 for motor neuron, GMR-GAL4 for eye) to induce expression of the AR transgene in a tissue-specific manner in fly vials containing fly food with either vehicle (1% ethanol +/−0.1% DMSO) or drugs. Upon the presence of progeny, parental flies were removed, and F1 flies were scored for phenotypic analysis. Viability was determined as previously described^40. Briefly, the population frequency of adult F1 SBMA flies (ELAV>UAS-AR52Q or OK371>UAS-AR52Q) and control flies (GAL4-ELAV; CyO-GFP) were determined by the presence or absence of the CyO phenotypic marker. At least three independent biological replicates (F0 crosses) were performed with new drug/food preparations for each treatment group, and a total of at least 50 flies were scored for each treatment group. To determine locomotor activity of SBMA flies, adult F1 flies (OK371>UAS-AR52Q) reared on food containing vehicle or drug were allowed to walk for 90 seconds in one well of a 12-well tissue culture plate while video was recorded using a Leica M205C stereomicroscope and Leica DFC320 digital camera. Videos were recorded for at least 15 flies per treatment group. Tracing of fly movement and analysis of displacement and velocity were performed using ImageJ software. Preparation and staining of larval neuromuscular junctions and ventral ganglions were performed as previously described^8.

`Cc1cccc(C)c1OCCSc1nc2ccccc2[nH]1` [CPD49, 2-((2-(2,6-dimethylphenoxy)ethyl)thio)-1H-benzimidazole]: the BF3-Bag-1L binding entry in experiment [1] was “inhibited”.
Consider `CC(C)Cc1ccc(C(C)C(=O)O)cc1` (centres unmarked) [ibuprofen], for which the SBMA fly viability result in experiment [2] is recorded as “did not”.
